Experimental data reported in PubChem BioAssay (NCI).
Where “and” joins values, the source holds several entries; their conditions need not be identical. Equal entries are not always repeated.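 Results reflect a 48-hour exposure of cells in 96-well plates to compound at five concentrations. Abbreviation: GI50, concentration required for 50% inhibition of growth. At the TGI there is no net growth.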

Legend:
Test in all cases: DTP human tumour cell line panel, 48 h
[1] = system: PC-3 prostate
[2] = system: SK-MEL-5 melanoma
[3] = system: RXF 393 renal
[4] = system: HL-60(TB) leukemia
[5] = system: HOP-92 NSCLC
[6] = system: EKVX NSCLC
[7] = system: T-47D breast
[8] = system: CCRF-CEM leukemia
[9] = system: HOP-62 NSCLC
[10] = system: COLO 205 colon

Compound | TGI [1] [µM] | TGI [2] | TGI [3] [µM] | TGI [4] | TGI [5] | TGI [6] [µM] | TGI [7] [µM] | TGI [8] | TGI [9] | TGI [10] [µM] | GI50 [1] [µM] | GI50 [2] [µM] | GI50 [3] [µM] | GI50 [4] [µM] | GI50 [5] [µM] | GI50 [6] [µM] | GI50 [7] [µM] | GI50 [8] [µM] | GI50 [9] [µM] | GI50 [10] [µM]
CN(C)CCCN1c2ccc(O)cc2Sc2ccc(Cl)cc21 | 18 | 28.2 µM | 32.6 | 30.8 µM | 17.2 µM | 35.9 | 38.7 | 22.2 µM | 29.5 µM | 39.3 |  |  |  |  |  |  |  |  |  | 
C=C1[C@@H](O)C[C@H]2C(C)(C)C[C@H](Cl)C[C@]2(C)[C@H]1C[C@H](O)[C@H]1CC(=O)NC1=O | 0.264 | 0.0363 µM | 0.0722 | 0.0547 µM | 0.179 µM | 0.128 | 0.0819 |  | 0.0961 µM | 0.0564 | 0.0174 | < 0.0134 | 0.0132 | < 0.0107 | < 0.0115 | 0.0157 | < 0.0113 | < 0.01 | 0.0116 | < 0.01
CNC12C3C4C1C1C2C3C41C(=O)N[C@H](C(=O)N(C)[C@H](C[C@@H](OC(C)=O)c1nc(C(=O)N[C@@H](Cc2ccccc2)C[C@H](C)C(=O)OC)cs1)C(C)C)C1CC1 (some centres undefined) | > 15 | 1.41 µM | 1.33 | 0.135 µM | 8.93 µM | > 15 | > 15 | 3.02 µM | > 15 µM | 2.31 | 0.391 | 0.155 | 0.213 | 0.0403 | 1.8 | 1.95 | 1.38 | 0.318 | 0.501 | 0.493
CC(=O)Oc1ccccc1C(=O)NCCC[Se]C#N | 5.47 |  | 6.7 | 5.49 µM | 3.05 µM |  | 17.8 | 21.1 µM | 2.92 µM | 29.9 | 1.93 |  | 2.67 | 2.09 | 1.49 |  | 3.19 | 2.89 | 1.51 | 12.8
CCOC(=O)Nc1ccc(C(=O)/C=C/c2ccccc2)cc1 | > 100 | > 100 µM | 49.1 | > 100 µM | 66.5 µM | > 100 | > 100 | > 100 µM | 47.3 µM | 47.6 | 30.9 | 27.1 | 22.5 | 31.4 | 11.2 | 37.5 | 21.6 | 36.9 | 20.4 | 20.3
COC(=O)C1=CO[C@@H](OC2OC(CO)C(O)C(O)C2O)[C@@H]2[C@H](C)[C@@H](O)[C@@H](O)[C@]12O (some centres undefined) | > 100 | > 100 µM | > 100 | > 100 µM | > 100 µM | > 100 | > 100 |  | > 100 µM | > 100 |  |  |  |  |  |  |  |  |  | 
O=C1Nc2ccc(CN3CCOC3=O)cc2/C1=C/c1cc(CN2CCOCC2)c[nH]1 | > 100 | 43.5 µM | > 72.3 | > 80.7 µM | > 92.3 µM | > 100 | > 88.3 | > 100 µM | > 100 µM | > 100 | 36.9 | 19.5 | 18.3 | 25.1 | 32 | 37.5 | 24.9 | 35.4 | 42.7 | 38.6
COc1cccc2c1C(=O)c1c(O)c3c(c(O)c1C2=O)C[C@@](O)(C(C)=O)C[C@@H]3OC1CC(O)C(O)C(C)O1 (some centres undefined) | 31.9 | 5.06 µM and 2.78 µM | 9.33 | 1.94 µM and 1.2 µM | 9.67 µM and 18.8 µM | 27.2 | 36.9 | 1.98 µM and 2.06 µM | 7.09 µM and 1.78 µM | 27 |  |  |  |  |  |  |  |  |  | 
Cc1ccc(S(=O)(=O)NNC(C[N+](=O)[O-])c2ccccc2)cc1 (centres undefined) | > 100 | 36.7 µM | 11.2 | 21.9 µM | > 100 µM | > 100 | 57.5 | > 100 µM | 74.5 µM | 30.8 |  |  |  |  |  |  |  |  |  | 
CNC(C)[C@H]1CCC2C3CCC4C[C@@H](N(C)C(=O)c5ccccc5)CC[C@]4(C)C3CC[C@@]21C (some centres undefined) | 3.52 | 2.02 µM | 4.26 | 4.28 µM | 3.52 µM | 6.3 | 4.26 | 3.4 µM | 3.17 µM | 2.52 | 0.969 | 0.613 | 1.73 | 1.58 | 0.384 | 0.613 | 0.37 | 0.763 | 1.43 | 1.15
CCCC(=O)O[C@]1(C)CC[C@@H]2[C@H]3[C@@H]1[C@@H]1C/C(C)=C\CC[C@](C)(OC(=O)[C@@H]2C)[C@H]3O1 | 41.3 | 33.1 µM | > 100 |  |  | > 100 | > 100 | 26 µM | > 100 µM | > 100 | 16.2 | 13.4 | > 100 |  |  | 68.3 | > 100 | 8.89 | 60.3 | 43.2
CCOc1ccc(NC(=O)c2cc3ccccc3cc2O)cc1 | > 100 | > 100 µM | 40.2 | > 100 µM | 38.5 µM | > 100 | > 100 | 41.7 µM | 81.5 µM | > 100 | > 100 | > 100 | 19 | 22.3 | 11.7 | > 100 | > 100 | 17.9 | 27.7 | > 100
CCCC(CCC)Oc1ccc(CCCC2=C(O)c3ccccc3C(=O)C2=O)cc1 | 15.7 | 13.6 µM | 21.5 | 6.27 µM |  | 18 | 31.6 | 17.1 µM | 22.3 µM | 32.3 | 3 | 3.14 | 5.75 | 2.68 |  | 5.61 | 12 | 2.9 | 7.6 | 6.7
Nc1cc(N)cc(Cc2ccccc2)c1 | > 100 | > 100 µM | > 100 | > 100 µM | > 100 µM | > 100 | > 100 | > 100 µM | > 100 µM | > 100 |  |  |  |  |  |  |  |  |  | 
COc1ccccc1Nc1nc2ccccc2c2occc12 | > 50 | 27.7 µM | 23.9 | > 50 µM | > 50 µM | 28.1 | > 50 | > 50 µM | > 50 µM | > 50 | 18.8 | 12.2 | 13.1 | 20.5 | 24.1 | 11.9 | 27.5 | 27.9 | 24.5 | 12.6
C[C@@H]1CC[C@@H]2[C@@H]1[C@H](OC(=O)c1ccc3ccccc3c1)[C@]1(C3CCCCC3)C[C@@H](OC(=O)CO)[C@@]2(C)O1 | 19.2 | 27.4 µM | 8.25 | 30.6 µM | 15.4 µM | 26.7 | 15.1 | 23.6 µM | 25.6 µM | 24.6 | 4.2 | 14 | 0.0702 | 9.23 | 3.15 | 11.4 | 3.33 | 5.36 | 12.8 | 11.2
CC(=O)[O][Hg][CH2]C1(C)COC(C)([CH2][Hg][O]C(C)=O)CO1 (centres undefined) | 37.5 | 26.5 µM | 7.08 | 5.94 µM | 19.1 µM | 36.3 | 21.4 | 1.72 µM | > 63.5 µM | 3.15 | 16.6 | 13.4 | 1.45 | 2.89 | 5.62 | 18.4 | 2.94 | 0.306 | 40.5 | 1.47
CSC(=NC#N)S/C=C/C(=O)c1cccc2ccccc12 | 99 | 55.4 µM | > 100 |  | 66.6 µM | > 100 | > 100 | > 100 µM | 61.2 µM | > 100 | 31.3 | 23.1 | 32.3 |  | 19.3 | 26.4 | 8.59 | 27.1 | 34 | 34.3
COc1ccc(C2CC(c3cccc(OC)c3)=NN2C(=O)c2cc(OC)c(OC)c(OC)c2)cc1 (centres undefined) | > 100 | > 40.4 µM |  |  | > 100 µM | > 100 | > 100 | > 29.6 µM | > 100 µM | 5.53 | 0.882 | 0.534 |  | 0.609 | 1.04 | 3.35 | 3.02 | 1.84 | > 23.1 | 1.19
Oc1cc2c(cc1C(c1ccc3c(c1)OCO3)N1CCN(C(c3ccc4c(c3)OCO4)c3cc4c(cc3O)OCO4)CC1)OCO2 (centres undefined) | > 100 | 37.9 µM | > 100 | > 100 µM | 78.3 µM | 98.6 | 34.6 |  | 64.7 µM | 90.8 |  |  |  |  |  |  |  |  |  | 
COC(=O)c1ccc(NC(N)=NCC(C)(C)COc2ccc(C(F)(F)F)cc2)nc1 | 2.75 |  | 2.96 | 3.56 µM | 2.57 µM | 3.41 | 3.21 |  | 3.2 µM | 3.23 | 1.38 |  | 1.49 | 1.79 | 1.23 | 1.43 | 1.37 |  | 1.67 | 1.63
N=C1N=C(N)S/C1=C\c1ccc2ncccc2c1 | > 25 | > 25 µM | > 25 | > 25 µM | > 25 µM |  | > 25 | > 25 µM | > 25 µM | > 25 | > 25 | > 25 | > 25 | > 25 | > 25 |  | > 25 | > 25 | > 25 | > 25
O=C(Nc1cc(C(F)(F)F)cc(C(F)(F)F)c1)Nc1ccc(OCc2nnc(-c3ccc(Cl)cc3)o2)c(F)c1 | 11.2 | 2.96 µM |  | 8.21 µM | 4.06 µM |  | 8.04 | 11.3 µM | 6.12 µM | 3.15 | 0.668 | 1.51 |  | 2.85 | 1.14 |  | 1.85 | 1.88 | 2.11 | 1.64
COc1cc2oc(-c3cccc(C(=O)Nc4ccc(C)cc4)c3)cc(=O)c2c(OC)c1OC | > 100 | 2.42 µM | 5.91 | 4.59 µM | 5.46 µM |  | > 100 | > 100 µM | 28.3 µM | 2.6 | 3.49 | 1.03 | 0.775 | 1.86 | 1.55 |  | 1.94 | 4.38 | 3.68 | 1.05
C/C(=C1/N=C(c2ccccc2)OC1=O)c1ccccc1 | > 100 | > 100 µM |  | > 100 µM | > 100 µM | > 100 | > 100 | > 100 µM | > 100 µM | > 100 |  |  |  |  |  |  |  |  |  | 
Clc1ccc(-c2nc(C(Cl)Cl)nc3cc(-c4ccccc4)nn23)cc1 | > 50 | > 50 µM | 1.87 |  | > 50 µM |  | > 50 | > 50 µM | 4.57 µM |  | 1.74 | > 50 | 0.813 |  | 1.25 |  | 1.73 | > 50 | 1.22 | 
Cc1ccc(S(=O)(=O)N[C@@H](Cc2ccccc2)C(=O)CCl)cc1 | 22.6 | 28.3 µM | 37.2 |  | 12 µM | 36 | > 100 |  | 39.8 µM | 52.3 | 5.54 |  | 14.6 |  | 2.19 |  | 21.4 |  |  | 19.9
CCCCCCCC(=O)NS(=O)(=O)c1ccccc1 | > 100 | > 100 µM |  | > 100 µM |  | > 100 | > 100 | > 100 µM | > 100 µM | > 100 |  |  |  |  |  |  |  |  |  | 
C[n+]1cc2cc3c(cc2c2ccccc21)OCO3 | 26.4 | 14.3 µM | > 100 |  | 23.8 µM |  | 14.4 | > 100 µM | 43.2 µM | 24 | 3.12 | 2.71 | 16.4 |  | 2.77 |  | 2.95 | 8.71 | 6.62 | 4.48
CCOC(=O)C(O)Cc1cnc2ccccc2n1 (centres undefined) | > 100 | > 100 µM | > 100 |  | > 100 µM | > 100 | > 100 | > 100 µM | > 100 µM | > 100 |  |  |  |  |  |  |  |  |  | 
